Patent US20260015358A1, “BICYCLIC DERIVATIVES, COMPOSITIONS AND USES THEREOF” (Danatlas Pharmaceuticals Co., Ltd., priority 2023, published 2026)
pIC50: −log10 of the molar value.

What was measured:
[1] = target: T1, WRN [UniPro: Q14191 (WRN_HUMAN), N500-C946] (Homo sapiens (Human), UniProt Q14191); assay: WRN ATPase assay (ADP-Glo); type: biochemical; conditions: WRN enzymatic activity assay
Description: WRN ATPase assay was initiated to evaluate potential inhibitory effect of compounds for ATP hydrolysis activity of WRN protein. WRN [UniPro: Q14191 (WRN_HUMAN), N500-C946] was expressed and purified in insect system and stored at −80° C. in aliquots. […] ADP quantity produced from ATP hydrolysis by WRN catalytic reaction was measured using a commercially available ADP-Glo Assay (ADP-Glo™ Kinase Assay from Promega, 10000 assays, #V9102). […] Compounds dissolved in DMSO (Sigma, D8418) were plated into a 96-well intermediate plate (BioFil, VWP-032-096) for 3-fold serial titration for 10 points using DMSO, and well-to-well transfer the titrated compounds into another 96-well intermediate plate including assay buffer in advance. Shake the 96-well intermediate plate at 600 rpm for 10 min to fully mix. Specifically, a 4× working mixture of WRN was diluted to a concentration of 8 nM in assay buffer. […] After centrifuging at 1000 rpm and shaking at 500 rpm, the assay plate was pre-incubated for 30 min. Then, 5 μL 2×FORKF DNA and ATP working mixture was dispensed into assay plate. Plate was sealed, centrifuged and incubated for an additional 40 min. at 37° C. The reaction was stopped with the addition of 10 μL of the first ADP-Glo reagent and incubated for 40 min. to remove the excess amount of ATP. Afterwards, 20 μL of ATP detection reagent was added and incubated for 30 min. before reading. Luminescence output was recorded using BMG CLARIO star plus reader. Each concentration of compound was tested in duplicates in the assay plate. Average luminescence signal of high control (Wells with 1% DMSO) was calculated as High Control (HC). Average luminescence signal of low control (Wells with no WRN protein) was calculated as Low control (LC).
IC50 values were determined by fitting the data to the standard 4 parameters with Hill Slope using GraphPad Prism software.

[2] = target: T1, WRN [UniPro: Q14191 (WRN_HUMAN), N500-C946]; assay: WRN unwinding assay (FORKF DNA, fluorescence); type: biochemical; conditions: Table 14

T1 sequence (Q14191 500-946): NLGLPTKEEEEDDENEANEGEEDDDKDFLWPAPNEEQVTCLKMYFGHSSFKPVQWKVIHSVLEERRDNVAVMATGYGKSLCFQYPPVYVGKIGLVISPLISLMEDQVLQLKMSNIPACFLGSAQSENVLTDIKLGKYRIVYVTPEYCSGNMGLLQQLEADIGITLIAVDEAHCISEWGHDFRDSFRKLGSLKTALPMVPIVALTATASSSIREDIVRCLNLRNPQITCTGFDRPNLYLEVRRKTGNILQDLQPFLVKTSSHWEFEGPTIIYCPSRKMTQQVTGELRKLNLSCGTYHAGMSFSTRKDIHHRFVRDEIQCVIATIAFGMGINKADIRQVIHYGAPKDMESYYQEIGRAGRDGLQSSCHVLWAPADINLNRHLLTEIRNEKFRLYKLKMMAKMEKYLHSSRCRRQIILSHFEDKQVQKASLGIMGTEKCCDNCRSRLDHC

Compound	pIC50 [1]	pIC50 [2]
CCc1c(N2CCN(c3noc4cccnc34)CC2)c(=O)n2nc(C3=CCOCC3)nc2n1CC(=O)Nc1ccc(C(F)(F)F)cc1Cl [Example 23, N-(2-Chloro-4-(trifluoromethyl)phenyl)-2-(2-(3,6-dihydro-2H-pyran-4-yl)-5-ethyl-6-(4-(isoxazolo[4,5-b]pyridin-3-yl)piperazin-1-yl)-7-oxo-[1,2,4]triazolo[1,5-a]pyrimidin-4 (7H)-yl)acetamide]	< 6.00	< 6.00
CCc1c(N2CCN(C(=O)NS(=O)(=O)CC)CC2)c(=O)n2nc(C3=CCOCC3)nc2n1CC(=O)Nc1ccc(C(F)(F)F)cc1Cl [Example 25, 4-(4-(2-((2-Chloro-4-(trifluoromethyl)phenyl)amino)-2-oxoethyl)-2-(3,6-dihydro-2H-pyran-4-yl)-5-ethyl-7-oxo-4,7-dihydro-[1,2,4]triazolo[1,5-a]pyrimidin-6-yl)-N-(ethylsulfonyl)piperazine-1-carboxamide]	> 7.00	> 7.00
CCC(=O)N1CCN(c2c(CC)n(CC(=O)Nc3ccc(C(F)(F)F)cc3Cl)c3nc(C4=CCOCC4)nn3c2=O)CC1 [Example 27, N-(2-Chloro-4-(trifluoromethyl)phenyl)-2-(2-(3,6-dihydro-2H-pyran-4-yl)-5-ethyl-7-oxo-6-(4-propionylpiperazin-1-yl)-[1,2,4]triazolo[1,5-a]pyrimidin-4(7H)-yl)acetamide]	6.00 to 7.00	> 7.00
CCc1c(N2CCN(S(N)(=O)=O)CC2)c(=O)n2nc(C3=CCOCC3)nc2n1CC(=O)Nc1ccc(C(F)(F)F)cc1Cl [Example 28, N-(2-Chloro-4-(trifluoromethyl)phenyl)-2-(2-(3,6-dihydro-2H-pyran-4-yl)-5-ethyl-7-oxo-6-(4-sulfamoylpiperazin-1-yl)-[1,2,4]triazolo[1,5-a]pyrimidin-4(7H)-yl)acetamide]	6.00 to 7.00	6.00 to 7.00
CCC(=O)NS(=O)(=O)N1CCN(c2c(CC)n(CC(=O)Nc3ccc(C(F)(F)F)cc3Cl)c3nc(C4=CCOCC4)nn3c2=O)CC1 [Example 29, N-((4-(4-(2-((2-Chloro-4-(trifluoromethyl)phenyl)amino)-2-oxoethyl)-2-(3,6-dihydro-2H-pyran-4-yl)-5-ethyl-7-oxo-4,7-dihydro-[1,2,4]triazolo[1,5-a]pyrimidin-6-yl)piperazin-1-yl)sulfonyl) propionamide]	> 7.00	> 7.00
CCc1c(N2CCN(C(=O)Nc3[nH]cnc3C(F)(F)F)CC2)c(=O)n2nc(C3=CCOCC3)nc2n1CC(=O)Nc1ccc(C(F)(F)F)cc1Cl [Example 30, 4-(4-(2-((2-Chloro-4-(trifluoromethyl)phenyl)amino)-2-oxoethyl)-2-(3,6-dihydro-2H-pyran-4-yl)-5-ethyl-7-oxo-4,7-dihydro-[1,2,4]triazolo[1,5-a]pyrimidin-6-yl)-N-(4-(trifluoromethyl)-1H-imidazol-5-yl)piperazine-1-carboxamide]	6.00 to 7.00	> 7.00
CCc1c(N2CCN(C(=O)c3[nH]cnc3C(F)(F)F)CC2)c(=O)n2nc(C3=CCOCC3)nc2n1CC(=O)Nc1ccc(C(F)(F)F)cc1Cl [Example 31, N-(2-Chloro-4-(trifluoromethyl)phenyl)-2-(2-(3,6-dihydro-2H-pyran-4-yl)-5-ethyl-7-oxo-6-(4-(4-(trifluoromethyl)-1H-imidazole-5-carbonyl)piperazin-1-yl)-[1,2,4]triazolo[1,5-a]pyrimidin-4(7H)-yl)acetamide]	6.00 to 7.00	> 7.00
CCc1c(N2CCN(C(=O)c3ncsc3N)CC2)c(=O)n2nc(C3=CCOCC3)nc2n1CC(=O)Nc1ccc(C(F)(F)F)cc1Cl [Example 32, 2-(6-(4-(5-Aminothiazole-4-carbonyl)piperazin-1-yl)-2-(3,6-dihydro-2H-pyran-4-yl)-5-ethyl-7-oxo-[1,2,4]triazolo[1,5-a]pyrimidin-4(7H)-yl)-N-(2-chloro-4-(trifluoromethyl)phenyl)acetamide]	6.00 to 7.00	> 7.00

Other lines, results leading:

pIC50 [1]	pIC50 [2]	Compound
6.00 to 7.00	6.00 to 7.00	CCC(=O)N(C(=O)Cn1c(CC)c(N2CCN(S(N)(=O)=O)CC2)c(=O)n2nc(C3=CCOCC3)nc12)c1ccc(C(F)(F)F)cc1Cl [Example 35, N-(2-Chloro-4-(trifluoromethyl)phenyl)-N-(2-(2-(3,6-dihydro-2H-pyran-4-yl)-5-ethyl-7-oxo-6-(4-sulfamoylpiperazin-1-yl)-[1,2,4]triazolo[1,5-a]pyrimidin-4(7H)-yl)acetyl)propionamide]
> 7.00	6.00 to 7.00	CCc1c(N2CCN(C(=O)CNC(=O)OC(C)(C)C)CC2)c(=O)n2nc(C3=CCOCC3)nc2n1CC(=O)Nc1ccc(C(F)(F)F)cc1Cl [Example 37, tert-Butyl (2-(4-(4-(2-((2-chloro-4-(trifluoromethyl)phenyl)amino)-2-oxoethyl)-2-(3,6-dihydro-2H-pyran-4-yl)-5-ethyl-7-oxo-4,7-dihydro-[1,2,4]triazolo[1,5-a]pyrimidin-6-yl)piperazin-1-yl)-2-oxoethyl)carbamate]
> 7.00	> 7.00	CCNC(=O)NCC(=O)N1CCN(c2c(CC)n(CC(=O)Nc3ccc(C(F)(F)F)cc3Cl)c3nc(C4=CCOCC4)nn3c2=O)CC1 [Example 41, N-(2-Chloro-4-(trifluoromethyl)phenyl)-2-(2-(3,6-dihydro-2H-pyran-4-yl)-5-ethyl-6-(4-((ethylcarbamoyl)glycyl)piperazin-1-yl)-7-oxo-[1,2,4]triazolo[1,5-a]pyrimidin-4(7H)-yl)acetamide]
> 7.00	> 7.00	CCc1c(N2CCN(C(=O)c3cnc4[nH]ccc4c3O)CC2)c(=O)n2nc(C3=CCOCC3)nc2n1CC(=O)Nc1ccc(C(F)(F)F)cc1Cl [Example 42, N-(2-Chloro-4-(trifluoromethyl)phenyl)-2-(2-(3,6-dihydro-2H-pyran-4-yl)-5-ethyl-6-(4-(4-hydroxy-1H-pyrrolo[2,3-b]pyridine-5-carbonyl)piperazin-1-yl)-7-oxo-[1,2,4]triazolo[1,5-a]pyrimidin-4(7H)-yl)acetamide]
6.00 to 7.00	> 7.00	CCc1c(N2CCN(C(=O)c3c[nH]c(=O)n(C)c3=O)CC2)c(=O)n2nc(C3=CCOCC3)nc2n1CC(=O)Nc1ccc(C(F)(F)F)cc1Cl [Example 43, N-(2-Chloro-4-(trifluoromethyl)phenyl)-2-(2-(3,6-dihydro-2H-pyran-4-yl)-5-ethyl-6-(4-(3-methyl-2,4-dioxo-1,2,3,4-tetrahydropyrimidine-5-carbonyl)piperazin-1-yl)-7-oxo-[1,2,4]triazolo[1,5-a]pyrimidin-4(7H)-yl)acetamide]
6.00 to 7.00	6.00 to 7.00	CCc1c(N2CCN(C(=O)c3ncnc4c(Cl)c[nH]c34)CC2)c(=O)n2nc(C3=CCOCC3)nc2n1CC(=O)Nc1ccc(C(F)(F)F)cc1Cl [Example 44, N-(2-Chloro-4-(trifluoromethyl)phenyl)-2-(6-(4-(7-chloro-5H-pyrrolo[3,2-d]pyrimidine-4-carbonyl)piperazin-1-yl)-2-(3,6-dihydro-2H-pyran-4-yl)-5-ethyl-7-oxo-[1,2,4]triazolo[1,5-a]pyrimidin-4(7H)-yl)acetamide]
> 7.00	> 7.00	CCc1c(N2CCN(C(=O)c3cnc4ccsc4c3O)CC2)c(=O)n2nc(C3=CCOCC3)nc2n1CC(=O)Nc1ccc(C(F)(F)F)cc1Cl [Example 45, N-(2-Chloro-4-(trifluoromethyl)phenyl)-2-(2-(3,6-dihydro-2H-pyran-4-yl)-5-ethyl-6-(4-(7-hydroxythieno[3,2-b]pyridine-6-carbonyl)piperazin-1-yl)-7-oxo-[1,2,4]triazolo[1,5-a]pyrimidin-4(7H)-yl)acetamide]
6.00 to 7.00	> 7.00	CCc1c(N2CCN(C(=O)c3ncc(F)cc3N)CC2)c(=O)n2nc(C3=CCOCC3)nc2n1CC(=O)Nc1ccc(C(F)(F)F)cc1Cl [Example 46, 2-(6-(4-(3-Amino-5-fluoropicolinoyl)piperazin-1-yl)-2-(3,6-dihydro-2H-pyran-4-yl)-5-ethyl-7-oxo-[1,2,4]triazolo[1,5-a]pyrimidin-4(7H)-yl)-N-(2-chloro-4-(trifluoromethyl)phenyl)acetamide]
> 7.00	> 7.00	CCc1c(N2CCN(C(=O)c3n[nH]c(=O)cc3O)CC2)c(=O)n2nc(C3=CCOCC3)nc2n1CC(=O)Nc1ccc(C(F)(F)F)cc1Cl [Example 48, N-(2-Chloro-4-(trifluoromethyl)phenyl)-2-(2-(3,6-dihydro-2H-pyran-4-yl)-5-ethyl-6-(4-(4-hydroxy-6-oxo-1,6-dihydropyridazine-3-carbonyl)piperazin-1-yl)-7-oxo-[1,2,4]triazolo[1,5-a]pyrimidin-4(7H)-yl)acetamide]
